Measurements taken from BindingDB's records for PubMed 3009454 (University of Wisconsin, 1986).

Target: T1, Aryl hydrocarbon receptor (Mus musculus, UniProt P30561)
T1 sequence (P30561 whole entry): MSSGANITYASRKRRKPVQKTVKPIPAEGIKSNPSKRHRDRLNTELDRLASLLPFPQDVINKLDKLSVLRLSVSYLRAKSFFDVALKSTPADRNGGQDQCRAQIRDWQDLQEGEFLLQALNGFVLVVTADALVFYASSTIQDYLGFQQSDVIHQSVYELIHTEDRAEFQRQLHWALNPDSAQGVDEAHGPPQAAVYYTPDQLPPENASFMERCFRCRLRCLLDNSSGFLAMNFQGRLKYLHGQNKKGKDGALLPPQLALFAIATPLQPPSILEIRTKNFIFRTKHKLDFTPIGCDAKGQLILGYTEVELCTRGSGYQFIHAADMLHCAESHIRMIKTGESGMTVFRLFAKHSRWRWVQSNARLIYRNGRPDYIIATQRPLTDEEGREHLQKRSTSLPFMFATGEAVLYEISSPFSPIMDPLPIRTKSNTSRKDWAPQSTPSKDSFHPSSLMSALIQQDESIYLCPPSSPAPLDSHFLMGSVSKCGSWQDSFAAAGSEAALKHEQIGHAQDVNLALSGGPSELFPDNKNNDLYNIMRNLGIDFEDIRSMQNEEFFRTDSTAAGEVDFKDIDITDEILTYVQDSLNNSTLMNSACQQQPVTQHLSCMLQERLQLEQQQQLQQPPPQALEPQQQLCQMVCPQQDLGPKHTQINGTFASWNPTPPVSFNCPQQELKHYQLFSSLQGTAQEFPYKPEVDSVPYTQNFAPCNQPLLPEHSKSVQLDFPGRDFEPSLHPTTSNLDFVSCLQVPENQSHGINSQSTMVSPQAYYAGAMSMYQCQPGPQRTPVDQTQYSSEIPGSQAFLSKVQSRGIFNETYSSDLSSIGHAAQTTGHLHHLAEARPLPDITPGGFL
Test: Binding Assay
Details: pH 7.5; 0 °C
Procedure: The equilibrium dissocation constants, KD values for the photoaffinity ligands were determined by a competitive binding assay.

## [N-]=[N+]=Nc1cc(Cl)cc2c1Oc1cc(Cl)c(Cl)cc1O2 [Photoaffinity ligand, 1]
  Kd: 0.44 nM

## [N-]=[N+]=Nc1c(I)c(Cl)cc2c1Oc1cc(Cl)c(Cl)cc1O2 [Photoaffinity ligand, 2]
  Kd: 2.1 nM

## [N-]=[N+]=Nc1cc2c(cc1Cl)Oc1cc(Cl)c(Cl)cc1O2 [Photoaffinity ligand, 3]
  Kd: 0.49 nM

## [N-]=[N+]=Nc1cc2c(cc1I)Oc1cc(Br)c(Br)cc1O2 [Photoaffinity ligand, 4]
  Kd: 0.76 nM

## [N-]=[N+]=Nc1ccc([N+](=O)[O-])c(C(=O)NCc2c(Cl)c(Cl)cc3c2Oc2cc(Cl)c(Cl)cc2O3)c1 [Photoaffinity ligand, 5]
  Kd: 13 nM

## [N-]=[N+]=Nc1ccc(C(=O)NCc2c(Cl)c(Cl)cc3c2Oc2cc(Cl)c(Cl)cc2O3)cc1 [Photoaffinity ligand, 6]
  Kd: 8.1 nM

## [N-]=[N+]=Nc1ccc(C(=O)NCc2c(Cl)c(Cl)cc3c2Oc2cc(Cl)c(Cl)cc2O3)c(O)c1 [Photoaffinity ligand, 7]
  Kd: 113 nM

## [N-]=[N+]=Nc1ccc(NCCCCCC(=O)NCc2c(Cl)c(Cl)cc3c2Oc2cc(Cl)c(Cl)cc2O3)c([N+](=O)[O-])c1 [Photoaffinity ligand, 8]
  Kd: 11 nM
